According to BindingDB's records for doi:10.1074/jbc.M113.518506 (Rudjer Boskovic Institute, 2013):

target: T1, Solute carrier organic anion transporter family member (Danio rerio, UniProt A0A8M9PU70); assay: Oatp1d1 Transport Assay
T1 sequence (A0A8M9PU70 whole entry): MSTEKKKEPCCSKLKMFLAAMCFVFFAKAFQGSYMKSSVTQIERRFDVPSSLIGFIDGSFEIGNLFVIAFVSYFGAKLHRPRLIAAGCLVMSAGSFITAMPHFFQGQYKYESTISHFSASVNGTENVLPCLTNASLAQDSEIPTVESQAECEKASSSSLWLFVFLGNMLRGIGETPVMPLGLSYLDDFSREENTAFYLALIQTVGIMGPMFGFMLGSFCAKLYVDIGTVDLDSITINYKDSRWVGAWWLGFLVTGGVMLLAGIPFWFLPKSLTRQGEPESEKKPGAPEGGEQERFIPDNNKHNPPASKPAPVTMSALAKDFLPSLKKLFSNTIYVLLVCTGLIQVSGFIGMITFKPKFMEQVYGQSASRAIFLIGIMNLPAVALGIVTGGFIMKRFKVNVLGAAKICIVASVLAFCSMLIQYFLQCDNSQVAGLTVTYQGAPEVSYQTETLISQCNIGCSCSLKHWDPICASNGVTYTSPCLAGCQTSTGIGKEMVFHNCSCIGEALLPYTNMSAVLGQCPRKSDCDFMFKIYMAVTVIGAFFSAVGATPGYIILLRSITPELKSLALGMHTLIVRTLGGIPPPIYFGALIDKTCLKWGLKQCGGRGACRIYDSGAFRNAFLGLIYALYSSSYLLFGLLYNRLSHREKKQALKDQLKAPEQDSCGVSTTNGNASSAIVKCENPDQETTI
Procedure: (§1) In the inhibition experiments, the cells were preincubated for 20 s with test compounds, followed by a 5-min incubation with [3H]E3S (5 nM) or 30-min incubation with LY (5 μM).

Row | SMILES | Ki
1 | CCCN(CCC)S(=O)(=O)c1ccc(C(=O)O)cc1 | 26 µM
2 | CC[C@H]1OC(=O)[C@H](C)[C@@H](O[C@H]2C[C@@](C)(OC)[C@@H](O)[C@H](C)O2)[C@H](C)[C@@H](O[C@@H]2O[C@H](C)C[C@H](N(C)C)[C@H]2O)[C@](C)(O)C[C@@H](C)C(=O)[C@H](C)[C@@H](O)[C@]1(C)O | 882 µM
3 | C[C@H](CCC(=O)NCCS(=O)(=O)O)[C@H]1CC[C@H]2[C@@H]3[C@H](O)C[C@@H]4C[C@H](O)CC[C@]4(C)[C@H]3CC[C@]12C | 3.4 µM
4 | CC(=O)[C@H]1CC[C@H]2[C@@H]3CCC4=CC(=O)CC[C@]4(C)[C@H]3CC[C@]12C | 9.06 µM
5 | CC(=O)C[C@H](c1ccccc1)c1c(O)c2ccccc2oc1=O [2-hydroxy-3-(3-oxo-1-phenylbutyl)-4H-chromen-4-one] | 0.36 µM
6 | Cc1ccc(C)c(OCCCC(C)(C)C(=O)O)c1 [5-(2,5-dimethylphenoxy)-2,2-dimethylpentanoic acid] | 7.44 µM
7 | C[C@]12C[C@H](O)[C@H]3[C@@H](CCC4=CC(=O)CC[C@@]43C)[C@@H]1CC[C@@H]2C(=O)CO [11beta,21-dihydroxypregn-4-ene-3,20-dione] | 105 µM
8 | C[C@]12CC[C@@H]3c4ccc(O)cc4CC[C@H]3[C@@H]1CC[C@@H]2O[C@@H]1O[C@H](C(=O)O)[C@@H](O)[C@H](O)[C@H]1O [17beta-Estradiol-17-(beta-D-glucuronide)] | 3.26 µM
9 | CC[C@H](C)C(=O)O[C@H]1C[C@H](O)C=C2C=C[C@H](C)[C@H](CC[C@@H](O)C[C@@H](O)CC(=O)O)[C@H]21 [(3R,5R)-7-[(1S,2S,6S,8S,8aR)-6-hydroxy-2-methyl-8-{[(2S)-2-methylbutanoyl]oxy}-1,2,6,7,8,8a-hexahydronaphthalen-1-yl]-3,5-dihydroxyheptanoic acid] | 9.27 µM
10 | C[C@]12CCC(=O)C=C1CC[C@@H]1[C@@H]2CC[C@]2(C)C(=O)CC[C@@H]12 [Androst-4-en-3,17-dione, 2] | 3.78 µM
11 | C=CC1=C(C)/C(=C/c2[nH]c(Cc3[nH]c(/C=C4\NC(=O)C(C)=C4C=C)c(C)c3CCC(=O)O)c(CCC(=O)O)c2C)NC1=O [BILIRUBIN] | 14.5 µM
12 | O=C1OC(c2ccc(O)c(S(=O)(=O)O)c2)(c2ccc(O)c(S(=O)(=O)O)c2)c2c(Br)c(Br)c(Br)c(Br)c21 [BROMOSULFOPHTHALEIN] | 2.99 µM
13 | CC(C)(Oc1ccc(CCNC(=O)c2ccc(Cl)cc2)cc1)C(=O)O [Cedur] | 40.4 µM
14 | C[C@H](CCC(=O)O)[C@H]1CC[C@H]2[C@@H]3[C@H](O)C[C@@H]4C[C@H](O)CC[C@]4(C)[C@H]3C[C@H](O)[C@]12C [Cholic Acid] | 141 µM
15 | C[C@]12CCC(=O)C[C@@H]1CC[C@@H]1[C@@H]2CC[C@]2(C)[C@@H](O)CC[C@@H]12 [DHT] | 23.4 µM
16 | CCCCC[C@H](O)/C=C/[C@H]1[C@H](O)CC(=O)[C@@H]1C/C=C\CCCC(=O)O [DINOPROSTONE] | 227 µM
17 | C[C@H](CCC(=O)O)[C@H]1CC[C@H]2[C@@H]3CC[C@@H]4C[C@H](O)CC[C@]4(C)[C@H]3C[C@H](O)[C@]12C [Deoxycholic Acid] | 9.94 µM
18 | C[C@]12CC[C@@H]3c4ccc(OS(=O)(=O)O)cc4CC[C@H]3[C@@H]1CCC2=O [Estrone Sulphate] | 1.01 µM
19 | CC(C)OC(=O)C(C)(C)Oc1ccc(C(=O)c2ccc(Cl)cc2)cc1 [Finofibrate] | 54.4 µM
20 | CN(Cc1cnc2nc(N)nc(N)c2n1)c1ccc(C(=O)N[C@@H](CCC(=O)O)C(=O)O)cc1 [MTX] | 222 µM
21 | CO[C@H]1/C=C/O[C@@]2(C)Oc3c(C)c(O)c4c(c3C2=O)C(=O)/C(=C/NN2CCN(C)CC2)C(=C4O)NC(=O)/C(C)=C\C=C\[C@H](C)[C@H](O)[C@@H](C)[C@@H](O)[C@@H](C)[C@H](OC(C)=O)[C@@H]1C [Rifampicin] | 12.7 µM
22 | C[C@]12CC[C@H]3[C@@H](CCC4=CC(=O)CC[C@@]43C)[C@@H]1CC[C@@H]2O [Testosterone, 1] | 30 µM
23 | C[C@]12CC[C@@H]3c4ccc(O)cc4CC[C@H]3[C@@H]1CC[C@@H]2O [[2,4,6,7-3H]-17beta-estradiol] | 2.83 µM
24 | C[C@]12CCC(=O)C=C1CC[C@@H]1[C@@H]2[C@@H](O)C[C@@]2(C)[C@H]1CC[C@]2(O)C(=O)CO [[3H]cortisol] | 120 µM
25 | N[C@@H](Cc1cc(I)c(Oc2ccc(O)c(I)c2)c(I)c1)C(=O)O [triothyrone] | 42.7 µM

target: T2, Solute carrier organic anion transporter family member [3-691] (Zebrafish, UniProt A0A0R4IW35); assay: Oatp1d1 Transport Assay
T2 construct: 3-691
T2 sequence (A0A0R4IW35 whole entry): T1 sequence (A0A8M9PU70 whole entry)
Procedure: as §1

Row | SMILES | Ki
26 | CCOC(=O)C(C)(C)Oc1ccc(Cl)cc1 [2-(4-Chlorophenoxy)-2-methylpropanoic acid ethyl ester] | 345 µM
